Where a name gives a salt, the structure may show the parent alone. Read-outs that look alike come from different tables or passages of the source. Each block holds one compound with its values, some of them ahead of it.
How the values were obtained:
[1] = system: rheumatoid arthritis fibroblast-like synoviocytes; conditions: cited from earlier work
[2] = system: retinoblastoma cells; parameters: method as in PMID 26564153; conditions: cited from earlier work
[3] = cited from earlier work
[4] = system: human retinoblastoma Y79 cell; parameters: method as in PMID 26564153; conditions: 48 h XTT assay; read-out: IC50 Y79 cell proliferation; cited from earlier work
[5] = system: MDA-MB-231; parameters: method as in PMID 23237975; conditions: value marked with footnote c; cited from earlier work
[6] = system: H1299; parameters: method as in PMID 23237975; conditions: read-out: IC50 against the growth of H1299; cited from earlier work
[7] = system: MRC-5; assay: XTT antiproliferative assay, normal lung cells MRC-5; type: cell-based; conditions: Homo sapiens, MRC5, 72 h, mean ± SD
Experimental: (§1) All the synthesized 4-anilinoquinolinylchalcone derivatives were evaluated in vitro against two cancer cells (Huh-7 and MDA-MB-231) and a non-cancer normal fibroblast lung cell line (MRC-5) using an XTT (sodium 3′-[1-(phenylamino-carbonyl)-3,4-tetrazolium}-bis(4-methoxy-6-nitro)benzene sulfonic acid hydrate) assay. The concentration that inhibited the growth of 50% of cells (IC50) was determined from the linear portion of the curve by calculating the concentration of the tested agent that reduced absorbance in treated cells, compared to control cells, by 50%. The IC50 results of these 4-anilinoquinolinylchalcone derivatives are summarized (Table 1). […] Thus, 4a was selected as a lead compound for further mechanism studies.
(§2) Cancer cells (Huh-7, MDA-MB-231) and normal lung cells (MRC-5) were purchased from Bioresources Collection and Research Center, Taiwan. Cells were maintained in the same standard medium, grown as a monolayer in DMEM (Gibco, Miami, FL, USA), and supplemented with 10% fetal bovine serum (FBS) and antibiotics, i.e., 100 IU/mL penicillin, 0.1 mg/mL streptomycin and 0.25 μg/mL amphotericin. The culture was maintained at 37 °C with 5% CO2 in a humidified atmosphere. Cells (5 × 10^3 cells/well) were treated with tested compounds for 72 h in the medium containing 10% FBS. Cell viability was quantitated with the use of sodium 3′-[1-(phenylamino-carbonyl)-3,4-tetrazolium}-bis(4-methoxy-6-nitro)benzene sulfonic acid hydrate (XTT) colorimetric assay (Biological Industries, Beit-Haemek, Israel). XTT labeling reagent (1 mg/mL) was mixed with electron-coupling reagent, following the manufacturer’s instructions, and 50 μL of the mixture was added directly to the cells. The plates were further incubated at 37 °C for 4 h. Color was measured spectrophotometrically in a microtiter plate reader at 492 nm and used as a relative measurement of viable cell numbers. After drug treatment, the viable cell number was compared to the solvent and untreated control cell number. This information was used to determine the percent of control growth as (Abtreated/Abcontrol) × 100, where Ab represents the mean absorbance (n = 3). The concentration that killed 50% of cells (IC50) was determined from the linear portion of the curve by calculating the concentration of the agent that reduced the absorbance in treated cells, compared to control cells, by 50%.

[8] = system: SKBR-3; parameters: method as in PMID 23237975; conditions: read-out: IC50 against the growth of SKBR-3; cited from earlier work
[9] = system: breast cancer MDA-MB-231 cells; assay: Cellular ATP assay (ATPlite luminescence); type: cell-based, human; conditions: MDA-MB-231, 24 h
Experimental: ATP levels are another cell viability indicator [31, 32, 33]. To further confirm the inhibition of the cell proliferative ability of compound 4a, the cellular ATP levels of breast cancer MDA-MB-231 cells were assessed (Figure 2).
Cellular ATP was determined using the ATPlite luminescence reagent (PerkinElmer Life Sciences, Boston, MA, USA). According to the user instruction, the cell lysate of treated cells was reacted with ATPlite substrate for 5 min in the dark. Finally, the luminescence was detected by a luminometer (Berthold Technologies GmbH & Co., Bad Wildbad, Germany).

[10] = system: Huh-7; assay: XTT antiproliferative assay, Huh-7; type: cell-based; conditions: Homo sapiens, 72 h, mean ± SD
Experimental: as §1, §2

[11] = system: breast cancer MDA-MB-231 cells; assay: ROS assay (H2DCFDA flow cytometry); type: cell-based, human; conditions: MDA-MB-231, 24 h
Experimental: To evaluate the ROS-inducing ability of compound 4a, the flow cytometry-based ROS detection of breast cancer MDA-MB-231 cells was conducted.
The oxidative stress indicator, such as ROS, was selected to assess the impact of drug treatment on the change in oxidative stress. According to the manufacturer’s instructions, the ROS reacting probe 2′,7′-dichlorodihydrofluorescein diacetate (H2DCFDA) (Sigma-Aldrich) was applied to drug-treated cells. Finally, these stained cells were conducted with flow cytometry.

[12] = system: breast cancer MDA-MB-231 cells; assay: Caspase 3/7 luminescence assay; type: cell-based, human; conditions: for caspase 3/7 activation: 24 h
Experimental: Using the caspase 3/7 luminescence assay, the modulating ability of breast cancer MDA-MB-231 cells on caspase 3/7 signaling with compound 4a was evaluated. […] Moreover, this caspase 3/7 activation with compound 4a was suppressed by NAC pretreatment.
Caspase 3/7 activation is the essential process for apoptosis, which was measured by the caspase-Glo® 3/7 assay (Promega; Madison, WI, USA), and its signal was read and recorded by a Luminometer (Berthold Technologies GmbH & Co., Bad Wildbad, Germany). The role of the induction of ROS affecting caspase 3/7 activity in drug-treated cells was evaluated by the 1 h pretreatment of 10 mM NAC [45, 49, 50].

[13] = system: breast cancer MDA-MB-231 cells; assay: Annexin V/7AAD apoptosis assay (flow cytometry); type: cell-based, human; conditions: MDA-MB-231, 24 h, 5 and 10 μM versus control and 1 μM
Experimental: To examine the apoptosis-inducing ability of compound 4a, the annexin V/7-aminoactinomycin D (7-AAD) change in breast cancer MDA-MB-231 cells was assessed. […] Compound 4a, consisting of both versatile quinoline and chalcone moieties, was also active in inducing cancer cell apoptosis.
Annexin V/7AAD flow cytometry was a common method for detecting apoptosis. The commercial product containing annexin V-FITC (1:1000) and 7AAD (1 μg/mL) (Strong Biotech; Taipei, Taiwan) was applied to stain drug-treated cells for 1 h. Finally, these stained cells were conducted with flow cytometry (Guava easyCyte, Luminex, TX, USA).

[14] = system: MDA-MB-231; assay: XTT antiproliferative assay, MDA-MB-231; type: cell-based; conditions: Homo sapiens, 72 h, mean ± SD
Experimental: as §1, §2

[15] = system: non-small-cell lung A549 cancer cells; conditions: 48 h trypan blue exclusion assay; read-out: IC50 antiproliferation A549; cited from earlier work
[16] = system: MDA-MB-231 cell line; parameters: method as in PMID 31234033; conditions: after 24 h of treatment; read-out: IC50 cytotoxicity on MDA-MB-231; cited from earlier work
[17] = system: Huh-7; parameters: method as in PMID 31234033; conditions: Chen et al.; cited from earlier work
[18] = system: HepG2; parameters: method as in PMID 31234033; conditions: Chen et al.; cited from earlier work
[19] = system: HA22T; parameters: method as in PMID 31234033; conditions: Chen et al.; cited from earlier work

Structure (SMILES): COc1cc(/C=C/C(=O)c2ccc3ccccc3c2O)cc(OC)c1 [(E)-3-(3,5-dimethoxyphenyl)-1-(1-hydroxynaphthalen-2-yl) prop-2-en-1-one]
- ROS burst [1]: evoke ROS burst

Structure (SMILES): O=C1c2cc(OCCN3CCCC3)ccc2-c2c(-c3ccc(OCCN4CCCC4)cc3)nc3ccc(OCCN4CCCC4)cc3c21 [BPIQ, 2,9-bis [2-(pyrrolidin-1-yl)ethoxy]-6-{4-[2-(pyrrolidin-1-yl)ethoxy]phenyl}-11H-indeno[1,2-c]quinolin-11-one]
- ROS production [2]: induces ROS production
- apoptosis induction [3]: apoptosis induction
- IC50 [4]: 13.6 µM

Structure (SMILES): COc1ccc(-c2cc3ccccc3nc2/C=C/C(=O)c2ccccc2)cc1 [Compound 1, (E)-3-[3-(4-methoxyphenyl)quinolin-2-yl]-1-phenylprop-2-en-1-one]
- IC50 [5]: 0.86 ± 0.07 µM
- IC50 [6]: 1.41 µM
- IC50 [7]: 0.66 ± 0.06 µM
- IC50 [8]: 0.7 µM

Structure (SMILES): CN(C)CCCOc1ccc(-c2nc3ccc(F)cc3c3c2-c2ccc(OCCCN(C)C)cc2C3=O)cc1 [DFIQ]
- IC50 [15]: 3.53 µM

Structure (SMILES): CS(=O)(=O)CCNCc1ccc(-c2ccc3ncnc(Nc4ccc(OCc5cccc(F)c5)c(Cl)c4)c3c2)o1 [Lapatinib]
- IC50 [16]: 32.5 µM
- IC50 [17]: 2.11 µM
- IC50 [7]: > 20 µM
- IC50 [18]: 3.42 µM
- IC50 [10]: 12.5 ± 0.28 µM
- IC50 [19]: 4.85 µM
- IC50 [14]: 12.8 ± 0.91 µM

Further lines, with some results ahead:

- melting point: 165 to 166 °C
Structure (SMILES): COc1cccc(COc2ccc(Nc3cc(/C=C/C(=O)c4ccc(F)cc4)nc4ccccc34)cc2)c1 (as salt: salt) [Compound 5f, (E)-1-(4-Fluorophenyl)-3-{4-{{4-[(3-methoxybenzyl)oxy]phenyl}amino}quinolin-2-yl}prop-2-en-1-one]

- melting point: 179 to 180 °C
Structure (SMILES): O=C(/C=C/c1cc(Nc2ccc(OCc3ccc(Cl)cc3)cc2)c2ccccc2n1)c1ccc(F)cc1 (as salt: salt) [Compound 5g, (E)-3-{4-{{4-[(4-Chlorobenzyl)oxy]phenyl}amino}quinolin-2-yl}-1-(4-fluorophenyl)prop-2-en-1-one]

- melting point: 254 to 255 °C
Structure (SMILES): O=C(/C=C/c1cc(Nc2ccc(OCc3ccc(F)cc3)cc2)c2ccccc2n1)c1ccc(F)cc1 (as salt: salt) [Compound 5h, (E)-3-{4-{{4-[(4-Fluorobenzyl)oxy]phenyl}amino}quinolin-2-yl}-1-(4-fluorophenyl)prop-2-en-1-one]

- IC50 [10]: 1.47 ± 0.07 µM
- IC50 [14]: 0.11 ± 0.07 µM
Structure (SMILES): COc1ccc(C(=O)/C=C/c2cc(Nc3ccc(OCc4ccccc4)cc3)c3ccccc3n2)cc1 [Compound 4a, (E)-3-{4-{[4-(Benzyloxy)phenyl]amino}quinolin-2-yl}-1-(4-methoxyphenyl)prop-2-en-1-one]
- cellular ATP levels [9]: dose-responsive downregulation of ATP
- IC50 [7]: > 20 µM
- ROS induction [11]: dose-responsive induction of ROS
- caspase 3/7 activation ([12]; MDA-MB-231, 1 μM): inactive
- caspase 3/7 activation ([12]; MDA-MB-231, 5 and 10 μM): significant caspase 3/7 activation
- caspase 3/7 activation after NAC pretreatment ([12]; MDA-MB-231, 1 h pretreatment of 10 mM NAC, then 4a 24 h): suppressed
- annexin V/7AAD apoptosis [13]: more significant apoptosis

— PMC10094048, “Synthesis and Anticancer Evaluation of 4-Anilinoquinolinylchalcone Derivatives” (International Journal of Molecular Sciences, 2023)
